Test results reported in patent publication US10961526B2, “Transformant, and method for producing protocatechuic acid or salt thereof using same” (RESEARCH INSTITUTE OF INNOVATIVE TECHNOLOGY FOR THE EARTH, priority 2016, dated 2021).

Tests used:
Assay type in all cases: cell-based
[1] = test system: Corynebacterium glutamicum strain R; assay: Inhibition by protocatechuic acid of growth in aerobic culture (OD610)
From the text: (§1) In a case where a product that has cytotoxicity, such as protocatechuic acid, is produced by the fermentation process using microorganisms, it is important that a host microorganism has resistance against the product, that is, hardly suffers from growth inhibition by the product. Then, for studying the degree of resistance against protocatechuic acid of Corynebacterium glutamicum, which is preferable as a host microorganism in the present invention, in comparison with other microorganisms, studies were made on the inhibition by protocatechuic acid of the growth of Corynebacterium glutamicum, Escherichia coli, Bacillus subtilis, Pseudomonas putida, Rhodococcus erythropolis, and Saccharomyces cerevisiae in aerobic culture.
Corynebacterium glutamicum strain R was applied to an A-agar plate [obtained by dissolving the following in distilled water 1 L: (NH2)2CO 2 g, (NH4)2SO4 7 g, KH2PO4 0.5 g, K2HPO4 0.5 g, MgSO4.7H2O 0.5 g, 0.06% (w/v) Fe2SO4.7H2O+0.042% (w/v) MnSO4.2H2O 1 ml, 0.02% (w/v) biotin solution 1 ml, 0.01% (w/v) thiamine solution 2 ml, yeast extract 2 g, vitamin assay casamino acid 7 g, agar 20 g] containing glucose at 4%, and was cultured at 33° C. for 16 hours. […] The growth of bacterial cells was determined by measuring OD610.
(§2) How the addition of protocatechuic acid to medium influenced aerobic growth of each strain was analyzed, and the results are shown in FIG. 2.

[2] = test system: Bacillus subtilis strain NBRC14144; assay: as above; conditions: LB-liquid medium, aerobic shaking culture 37° C.
From the text: as §1
(§3) Further, Escherichia coli strain K12, Bacillus subtilis strain NBRC14144, Pseudomonas putida strain ATCC700801, and Rhodococcus erythropolis strain ATCC27854 were applied to LB-agar plate [containing 1% polypeptone, 0.5% yeast extract, 0.5% sodium chloride, and 1.5% agar]. Escherichia coli strain K12 and Bacillus subtilis strain NBRC14144 were cultured at 37° C. for 16 hours, while Pseudomonas putida strain ATCC700801 and Rhodococcus erythropolis strain ATCC27854 were cultured at 30° C. for 16 hours. Each strain grown on the plate described above was inoculated in 10 ml of LB-liquid medium [1% polypeptone, 0.5% yeast extract, and 0.5% sodium chloride]. Escherichia coli strain K12 and Bacillus subtilis strain NBRC14144 were subjected to aerobic shaking culture at 37° C. for 16 hours, while Pseudomonas putida strain ATCC700801 and Rhodococcus erythropolis strain ATCC27854 were subjected to aerobic shaking culture at 30° C. for 16 hours. Each strain grown under the above-described conditions was inoculated in 10 ml of the LB-liquid medium so that the initial bacterial cell concentration OD610=0.1, and simultaneously protocatechuic acid was added so that the final concentrations were 0, 25, 50, 100, 250, 500 mM. Escherichia coli strain K12 and Bacillus subtilis strain NBRC14144 were subjected to aerobic shaking culture at 37° C., while Pseudomonas putida strain ATCC700801 and Rhodococcus erythropolis strain ATCC27854 was subjected aerobic shaking culture at 30° C. The growth of bacterial cells was determined by measuring OD610.
as §2

[3] = test system: Escherichia coli strain K12; assay: as above; conditions: LB-liquid medium, aerobic shaking culture 37° C.
From the text: as §1, §3, §2

[4] = test system: Pseudomonas putida strain ATCC700801; assay: as above; conditions: LB-liquid medium, aerobic shaking culture 30° C.
From the text: as §1, §3, §2

[5] = test system: Rhodococcus erythropolis strain ATCC27854; assay: as above; conditions: LB-liquid medium, aerobic shaking culture 30° C.
From the text: as §1, §3, §2

[6] = test system: Saccharomyces cerevisiae strain NBRC2376; assay: as above; conditions: YPD liquid medium, aerobic shaking culture 30° C.
From the text: as §1
Further, Saccharomyces cerevisiae strain NBRC2376 was applied to YPD agar plate [2% polypeptone, 1% yeast extract, 2% glucose, and 1.5% agar], and was cultured at 30° C. for 16 hours. Saccharomyces cerevisiae strain NBRC2376 on the plate described above was inoculated in YPD liquid medium [2% polypeptone, 1% yeast extract, and 2% glucose], and was subjected to aerobic shaking culture at 30° C. for 16 hours. […] The growth of bacterial cells was determined by measuring OD610.
as §2

[7] = test system: Corynebacterium glutamicum strain R; assay: Glucose consumption under presence of high concentration of protocatechuic acid; conditions: high concentration of protocatechuic acid (0, 50, 250, 500 mM), 24-hour culture, 33° C.
Procedure: As indicated in Reference Example 1, Corynebacterium glutamicum was able to grow even under the presence of a high concentration of protocatechuic acid. Then, a glucose consumption ability of Corynebacterium glutamicum under the presence of a high concentration of protocatechuic acid was further studied in the following manner.
Corynebacterium glutamicum strain R was applied to the above-described A-agar plate containing glucose 4%, and was cultured at 33° C. for 16 hours. One platinum loop of Corynebacterium glutamicum strain R grown on the above-described plate was inoculated in a test tube having therein 10 ml of the above-described A-liquid medium containing glucose 4%, and was subjected to aerobic shaking culture at 33° C. for 16 hours. Corynebacterium glutamicum strain R grown under the above-described conditions was inoculated in 10 ml of the above-described A-liquid medium containing glucose 4% so that the initial bacterial cell concentration OD610=0.2. Simultaneously, protocatechuic acid was added so that the final concentrations thereof became 0, 50, 250, 500 mM, and aerobic shaking culture was carried out at 33° C. After 24-hour culture, culture solutions were collected, and centrifuged (4° C., 15,000×g, 5 minutes). Concentrations of glucose in the supernatants obtained were measured by a glucose sensor in the same manner as Example 2 to be described below. […]

SMILES: O=C(O)c1ccc(O)c(O)c1 [protocatechuic acid]
- growth capacity of Corynebacterium glutamicum ([1]; 500 mM protocatechuic acid): robust growth capacity
- growth of Corynebacterium glutamicum strain R ([1]; 250 to 500 mM of protocatechuic acid, A-liquid medium with glucose 4%, aerobic shaking culture 33° C.): robust growth
- growth of Bacillus subtilis strain NBRC14144 ([2]; 250 mM protocatechuic acid): significantly inhibited
- growth of Bacillus subtilis strain NBRC14144 ([2]; 500 mM protocatechuic acid): substantially completely inhibited
- growth of Escherichia coli strain K12 ([3]; 100 mM protocatechuic acid): significantly inhibited
- growth of Escherichia coli strain K12 ([3]; 250 mM protocatechuic acid): substantially completely inhibited
- growth of Pseudomonas putida strain ATCC700801 ([4]; 100 mM protocatechuic acid): strongly inhibited
- growth of Pseudomonas putida strain ATCC700801 ([4]; 250 mM protocatechuic acid): substantially completely inhibited
- growth of Rhodococcus erythropolis strain ATCC27854 ([5]; 250 mM protocatechuic acid): strongly inhibited
- growth of Rhodococcus erythropolis strain ATCC27854 ([5]; 500 mM protocatechuic acid): substantially completely inhibited
- growth of Saccharomyces cerevisiae strain NBRC2376 ([6]; 250 mM protocatechuic acid): inhibited
- growth of Saccharomyces cerevisiae strain NBRC2376 ([6]; 500 mM protocatechuic acid): significantly inhibited
- decrease in the saccharide consumption by Corynebacterium glutamicum [7]: small
